Literature values in patent publication US20120322745A1, “OPTIMIZED METHOD FOR OBTAINING ACE ACTIVITY INHIBITORY PEPTIDES FROM WHEY, ACE INHIBITORY PEPTIDES AND FOOD COMPRISING THEM” (QUEIZUAR ,S.L., priority 2011, published 2012).

Target: angiotensin converting enzyme (ACE)
Settings: ACE inhibitory peptides obtained by enzymatic hydrolysis of whey proteins

| Substance | IC50 |
| --- | --- |
| ALKAWSVAR [BSA f(208-216)] | 3 µM |
| VLDTDYK [β-Lg f(94-100)] | 946 µM |
| β-Lg f(22-25): ACE inhibitory peptide, sequence LAMA, from whey protein hydrolysis with trypsin (UniProt P02754 38-41, looked up, fragment) | 556 µM |
| β-Lg f(15-19): ACE inhibitory peptide, sequence VAGT, from hydrolysis with pepsin, trypsin, chemotrypsin | 1050 µM |
| LKPTPEGN [β-Lg (f 46-53)] | > 2700 µM |
| β-Lg f(81-83): ACE inhibitory peptide, sequence VFK, from whey protein hydrolysis with trypsin (UniProt P02754 97-99, looked up, fragment) | 1030 µM |
| CMENSA [β-Lg f(106-111)] | 788 µM |
| LDAQSAPLR [β-Lg f(32-40)] | 635 µM |
| β-Lg (f 122-125): ACE inhibitory peptide, sequence LVRT, from whey protein hydrolysis with thermolysin (UniProt P02754 138-141, looked up, fragment) | 2470 µM |

More lines, in order of falling IC50, values ahead:

| IC50 | Substance |
| --- | --- |
| 521 µM | ALPMH (UniProt P02754 158-162, looked up, fragment) [β-Lg f(142-146)] |
| 327 µM | VGINYWLAHK [α-La f(99-108)] |
| 172 µM | β-Lg (f 102-105): ACE inhibitory peptide, sequence YLLF, from hydrolysis with pepsin, trypsin, chemotrypsin (UniProt P02754 118-121, looked up, fragment) |
| 141 µM | β-Lg f(78-80): ACE inhibitory peptide, sequence IPA, from whey protein hydrolysis with proteinase k (UniProt P02754 94-96, looked up, fragment) |
| 79.8 µM | β-Lg f(103-105): ACE inhibitory peptide, sequence LLF, from whey protein hydrolysis with thermolysin (UniProt P02754 119-121, looked up, fragment) |
| 77 µM | WLAHK [α-La f(104-108)] |
| 42.6 µM | ALPMHIR [β-Lg (f 142-148)] |
| 34.7 µM | β-Lg f(58-61): ACE inhibitory peptide, sequence LKQW, from whey protein hydrolysis with thermolysin |
